In US6908935B2, “Calcium receptor modulating agents” (Amgen Inc., priority 2002, dated 2005):

What follows are compounds tested against T1, human parathyroid cell Ca^2+ receptor (hPCaR) (Homo sapiens, UniProt P41180) (assay: [Ca2+]i measurement with fluo-3 in HEK 293 4.0-7 cells stably transfected with hPCaR). Details: fluo-3 fluorescence (485/530 nm), effect on [Ca^2+]i.
T1 construct: expressed in transfected cells
T1 sequence (P41180 20-1078): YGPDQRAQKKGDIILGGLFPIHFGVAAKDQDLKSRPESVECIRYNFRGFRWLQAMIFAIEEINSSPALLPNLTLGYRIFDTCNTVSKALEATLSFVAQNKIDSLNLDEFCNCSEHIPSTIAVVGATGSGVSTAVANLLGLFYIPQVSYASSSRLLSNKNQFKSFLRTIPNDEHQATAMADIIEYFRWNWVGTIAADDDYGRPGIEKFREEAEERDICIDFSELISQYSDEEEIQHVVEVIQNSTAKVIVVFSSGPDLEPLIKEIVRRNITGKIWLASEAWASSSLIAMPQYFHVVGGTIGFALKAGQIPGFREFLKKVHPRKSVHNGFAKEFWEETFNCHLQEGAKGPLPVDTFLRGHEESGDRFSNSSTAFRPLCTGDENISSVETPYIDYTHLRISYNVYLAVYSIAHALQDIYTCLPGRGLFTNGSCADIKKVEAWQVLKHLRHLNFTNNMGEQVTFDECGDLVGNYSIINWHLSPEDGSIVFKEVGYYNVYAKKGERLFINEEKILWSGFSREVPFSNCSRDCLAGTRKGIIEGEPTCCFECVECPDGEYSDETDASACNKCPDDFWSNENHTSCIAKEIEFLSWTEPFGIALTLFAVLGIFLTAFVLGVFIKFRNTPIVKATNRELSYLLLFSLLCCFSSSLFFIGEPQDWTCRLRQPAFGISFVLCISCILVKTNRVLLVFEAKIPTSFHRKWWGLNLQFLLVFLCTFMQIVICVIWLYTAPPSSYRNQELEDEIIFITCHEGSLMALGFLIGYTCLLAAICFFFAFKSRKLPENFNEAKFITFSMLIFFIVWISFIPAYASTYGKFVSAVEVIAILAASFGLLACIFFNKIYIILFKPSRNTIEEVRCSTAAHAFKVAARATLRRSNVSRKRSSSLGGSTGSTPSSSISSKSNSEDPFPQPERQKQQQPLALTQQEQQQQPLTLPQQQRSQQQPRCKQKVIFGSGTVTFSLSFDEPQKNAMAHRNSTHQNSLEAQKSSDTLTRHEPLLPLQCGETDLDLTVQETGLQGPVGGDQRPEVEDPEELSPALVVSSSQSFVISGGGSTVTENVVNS
Type: cell-based
Experimental: The activities of the compounds of the present invention on calcium receptors were measured. In one embodiment, the measurement was performed in accordance with the method described in Example 4 of Nemeth et al., PCT/US95/13704 (International Publication No. WO96/12697) herein incorporated by reference.
A 4.0-kb NotI-HindIII fragment of the human parathyroid cell Ca^2+ receptor (hPCaR) cDNA was subcloned into the mammalian expression vector pCEP4 (Invitrogen) containing the hygromycin-resistant gene as a selectable marker. This plasmid was transfected into HEK 293 cells by calcium phosphate precipitation. Transfected cells were grown in Dulbecco's modified Eagle's medium containing 10% fetal bovine serum and hygromycin (200 μg/mL). Hygromycin-resistant colonies were subcloned and assayed for hPCaR mRNA by solution hybridization using a ^32P-labeled RNA probe complementary to the (4.0 kb) hPCaR sequence (Garrett, et al., J. Biol. Chem. 270, 12919-12925 (1995)). Clone 7 was used to assess the effects of compounds on [Ca^2+]i. This stably transfected cell line is termed HEK 293 4.0-7. For measurements of [Ca^2+]i, the cells were recovered from tissue culture flasks by brief treatment with 0.02% EDTA and then washed and resuspended in PCB containing 1 mM CaCl2 and 0.1% Bovine Serum Albumin (“BSA”). The cells were loaded with fluo-3 by incubation for 30 min at 37° C., with parathyroid cell buffer (126 mM NaCl, 4 mM KCl, 1 mM MgSO4, 0.7 mM K2HPO/KH2PO4, 20 mM HEPES.NaOH (pH 7.45)) containing 0.5% BSA in lmM CaCl2 and 2 μM fluo-3 acetoxymethyl ester. The cells were subsequently washed, each test compound was added to the cells and the fluorescence was recorded by using excitation and emission wavelengths of 485 and 530 nm, respectively.

SMILES	EC50 [µM]
C[C@@H](NCc1cccc(-c2ccc(C(F)(F)F)nc2)c1)c1cccc2ccccc12 [(1R)-1-(1-naphthalenyl)-N-((3-(6-(trifluoromethyl)-3-pyridinyl)phenyl)methyl)ethanamine]	≤ 10
C[C@@H](NCc1ccc(OCC(F)(F)F)c(-c2ccc(C(F)(F)F)cc2)c1)c1cccc2ccccc12 [(1R)-1-(1-naphthalenyl)-N-((6-((2,2,2-trifluoroethyl)oxy)-4′-(trifluoromethyl)-1,1′-biphenyl-3-yl)methyl)ethanamine]	≤ 10
C[C@@H](NCc1cccc(-c2ccccn2)c1)c1ccc2ccccc2c1 [(1R)-1-(2-naphthalenyl)-N-((3-(2-pyridinyl)phenyl)methyl)ethanamine]	≤ 10
COCCOc1cccc([C@@H](C)NCc2ccc(OC)c(-c3ccc(C(F)(F)F)cc3)c2)c1 [(1R)-1-(3-((2-(methyloxy)ethyl)oxy)phenyl)-N-((6-(methyloxy)-4′-(trifluoromethyl)-1,1′-biphenyl-3-yl)methyl)ethanamine]	≤ 10
COc1cccc([C@@H](C)NCc2cccc(-c3nccs3)c2)c1 [(1R)-1-(3-(methyloxy)phenyl)-N-((3-(1,3-thiazol-2-yl)phenyl)methyl)ethanamine]	≤ 10
COc1cccc([C@@H](C)NCc2cccc(-c3cnccn3)c2)c1 [(1R)-1-(3-(methyloxy)phenyl)-N-((3-(2-pyrazinyl)phenyl)methyl)ethanamine]	≤ 10
COc1cccc([C@@H](C)NCc2cccc(-c3ccccn3)c2)c1 [(1R)-1-(3-(methyloxy)phenyl)-N-((3-(2-pyridinyl)phenyl)methyl)ethanamine]	≤ 10
COc1cccc([C@@H](C)NCc2cccc(-c3cncnc3)c2)c1 [(1R)-1-(3-(methyloxy)phenyl)-N-((3-(5-pyrimidinyl)phenyl)methyl)ethanamine]	≤ 10
COc1cccc([C@@H](C)NCc2cccc(-c3ccc(OC)nn3)c2)c1 [(1R)-1-(3-(methyloxy)phenyl)-N-((3-(6-(methyloxy)-3-pyridazinyl)phenyl)methyl)ethanamine]	≤ 10
COc1cccc([C@@H](C)NCc2cccc(-c3ccc(C)nc3)c2)c1 [(1R)-1-(3-(methyloxy)phenyl)-N-((3-(6-methyl-3yridinyl)phenyl)methyl)ethanamine]	≤ 10
COc1cccc([C@@H](C)NCc2ccc(OC)c(-c3nccs3)c2)c1 [(1R)-1-(3-(methyloxy)phenyl)-N-((4-(methyloxy)-3-(1,3-thiazol-2-yl)phenyl)methyl)ethanamine]	≤ 10
COc1cccc([C@@H](C)NCc2ccc(OC)c(-c3cnc(OCC(F)(F)F)nc3)c2)c1 [(1R)-1-(3-(methyloxy)phenyl)-N-((4-(methyloxy)-3-(2-((2,2,2-trifluoroethyl)oxy)-5-pyrimidinyl)phenyl)methyl)ethanamine]	≤ 10
COc1cccc([C@@H](C)NCc2ccc(OC)c(-c3cnccn3)c2)c1 [(1R)-1-(3-(methyloxy)phenyl)-N-((4-(methyloxy)-3-(2-pyrazinyl)phenyl)methyl)ethanamine]	≤ 10
COc1cccc([C@@H](C)NCc2ccc(OC)c(-c3ncccn3)c2)c1 [(1R)-1-(3-(methyloxy)phenyl)-N-((4-(methyloxy)-3-(2-pyrimidinyl)phenyl)methyl)ethanamine]	≤ 10

Next, values leading:

EC50 [µM]	SMILES
≤ 10	COc1ccc(CN[C@H](C)c2ccccc2)cc1-c1ccc(C(N)=O)cc1 [2′-(methyloxy)-5′-((((1R)-1-phenylethyl)amino)methyl)-1,1′-biphenyl-4-carboxamide]
≤ 10	COc1ccc(CN[C@H](C)c2ccccc2)cc1-c1cccnc1NCCCN1CCOCC1 [3-(2-(methyloxy)-5-((((1R)-1-phenylethyl)amino)methyl)phenyl)-N-(3-(4-morpholinyl)propyl)-2-pyridinamine]
≤ 10	COc1ccc(CN[C@H](C)c2ccccc2)cc1-c1cccnc1NCC1CCCO1 (stereo partly drawn) [3-(2-(methyloxy)-5-((((1R)-1-phenylethyl)amino)methyl)phenyl)-N-(tetrahydro-2-furanylmethyl)-2-pyridinamine]
≤ 10	COc1ccc(CN[C@H](C)c2ccccc2)cc1-c1csc(N)n1 [4-(2-(methyloxy)-5-((((1R)-1-phenylethyl)amino)methyl)phenyl)-1,3-thiazol-2-amine]
≤ 10	COc1ccc([C@@H](C)NCc2cccc(-c3ccc(NC(=O)CCC(=O)O)nc3)c2)cc1 [4-((5-(3-((((1R)-1-(4-(methyloxy)phenyl)ethyl)amino)methyl)phenyl)-2-pyridinyl)amino)-4-oxobutanoic acid]
≤ 10	C[C@@H](NCc1cccc(-c2ccc(NC(=O)CCC(=O)O)nc2)c1)c1ccccc1 [4-oxo-4-((5-(3-((((1R)-1-phenylethyl)amino)methyl)phenyl)-2-pyridinyl)amino)butanoic acid]
≤ 10	COc1ccc(CN[C@H](C)c2cccc3ccccc23)cc1-c1cncc(C(N)=O)c1 [5-(2-(methyloxy)-5-((((1R)-1-(1-naphthalenyl)ethyl)amino)methyl)phenyl)-3-pyridinecarboxamide]
≤ 10	COc1ccc(CN[C@H](C)c2ccc3ccccc3c2)cc1-c1cnc(N)nc1 [5-(2-(methyloxy)-5-((((1R)-1-(2-naphthalenyl)ethyl)amino)methyl)phenyl)-2-pyrimidinamine]
≤ 10	COc1ccc(CN[C@H](C)c2ccc3ccccc3c2)cc1-c1cncc(C(N)=O)c1 [5-(2-(methyloxy)-5-((((1R)-1-(2-naphthalenyl)ethyl)amino)methyl)phenyl)-3-pyridinecarboxamide]
≤ 10	COc1cccc([C@@H](C)NCc2ccc(OC)c(-c3ccc(C(=O)O)o3)c2)c1 [5-(2-(methyloxy)-5-((((1R)-1-(3-(methyloxy)phenyl)ethyl)amino)methyl)phenyl)-2-furancarboxylic acid]
≤ 10	COc1ccc(CN[C@H](C)c2ccc(C)cc2)cc1-c1cnc(N)nc1 [5-(2-(methyloxy)-5-((((1R)-1-(4-methylphenyl)ethyl)amino)methyl)phenyl)-2-pyrimidinamine]
≤ 10	COc1ccc(CN[C@H](C)c2ccc(C)cc2)cc1-c1cncc(C(N)=O)c1 [5-(2-(methyloxy)-5-((((1R)-1-(4-methylphenyl)ethyl)amino)methyl)phenyl)-3-pyridinecarboxamide]
≤ 10	COc1ccc(CN[C@H](C)c2ccccc2)cc1-c1ccc(=O)n(CC(F)(F)F)c1 [5-(2-(methyloxy)-5-((((1R)-1-phenylethyl)amino)methyl)phenyl)-1-(2,2,2-trifluoroethyl)-2(1H)-pyridinone]
≤ 10	COc1ccc(CN[C@H](C)c2ccccc2)cc1-c1ccc(N)nc1 [5-(2-(methyloxy)-5-((((1R)-1-phenylethyl)amino)methyl)phenyl)-2-pyridinamine]
≤ 10	COc1ccc(CN[C@H](C)c2ccccc2)cc1-c1cncc(C(N)=O)c1 [5-(2-(methyloxy)-5-((((1R)-1-phenylethyl)amino)methyl)phenyl)-3-pyridinecarboxamide]
≤ 10	COc1cccc([C@@H](C)NCc2cccc(-c3cncc(C(N)=O)c3)c2)c1 [5-(3-((((1R)-1-(3-(methyloxy)phenyl)ethyl)amino)methyl)phenyl)-3-pyridinecarboxamide]
≤ 10	C[C@@H](NCc1cccc(-c2ccccn2)c1)c1cccc2ccccc12 [(1R)-1-(1-naphthalenyl)-N-((3-(2-pyridinyl)phenyl)methyl)ethanamine]
